Results from ChEMBL document CHEMBL1201862, “PubChem BioAssay data set” (2004).
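Dose response: 5 concentrations. Exposure: 48 h. Format: 96-well plates. Endpoint: linear interpolation; highest concentration if not reached. Abbreviation: GI50, concentration required for 50% inhibition of growth.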 The source made the active and inactive calls. No stated cut-off is given here; in the data, active = GI50 up to about 1.1 µM and inactive = higher.

Experiments:
Assay in all cases: inhibition of tumour cell growth, NCI panel, 48 h
CAKI-1 = tested on: CAKI-1
SK-OV-3 = tested on: SK-OV-3
M14 = tested on: M14
MCF7 = tested on: MCF7
Malme-3M = tested on: Malme-3M
T47D = tested on: T47D
HCT-15 = tested on: HCT-15
DU-145 = tested on: DU-145
MDA-N = tested on: MDA-N
SF-295 = tested on: SF-295
LOX IMVI = tested on: LOX IMVI
CCRF-CEM = tested on: CCRF-CEM
NCI-H23 = tested on: NCI-H23
SR = tested on: SR
UACC-62 = tested on: UACC-62
SF-268 = tested on: SF-268
OVCAR-3 = tested on: OVCAR-3
HCC 2998 = tested on: HCC 2998
NCI-H226 = tested on: NCI-H226

SMILES	GI50 (CAKI-1)	GI50 (SK-OV-3)	GI50 (M14)	GI50 (MCF7)	GI50 (Malme-3M)	GI50 (T47D)	GI50 (HCT-15) [µM]	GI50 (DU-145)	GI50 (MDA-N)	GI50 (SF-295)	GI50 (LOX IMVI)	GI50 (CCRF-CEM)	GI50 (NCI-H23)	GI50 (SR)	GI50 (UACC-62)	GI50 (SF-268)	GI50 (OVCAR-3)	GI50 (HCC 2998)	GI50 (NCI-H226)
O=C(O)c1c2c(c(O)c3c1CN(C1CCCCC1)CO3)OCN(C1CCCCC1)C2	> 100 µM (inactive)	> 100 µM (inactive)	> 100 µM (inactive)	20.1 µM (inactive)	> 100 µM (inactive)	> 100 µM (inactive)	> 100	> 100 µM (inactive)	> 100 µM (inactive)	92.7 µM (inactive)	21.3 µM (inactive)	10.4 µM (inactive)	> 100 µM (inactive)	27.2 µM (inactive)	> 100 µM (inactive)	46.3 µM (inactive)	69 µM (inactive)	21.6 µM (inactive)	–
O=c1oc2ccccc2c(-c2ccc(O)cc2)c1Oc1ccc(Cl)cc1	28.8 µM (inactive)	–	17.1 µM (inactive)	4.88 µM (inactive)	18.2 µM (inactive)	29.6 µM (inactive)	30.1	42.7 µM (inactive)	19.5 µM (inactive)	17 µM (inactive)	24.7 µM (inactive)	21.4 µM (inactive)	20.7 µM (inactive)	18.2 µM (inactive)	19.9 µM (inactive)	23.6 µM (inactive)	14.9 µM (inactive)	16.9 µM (inactive)	20.5 µM (inactive)
O=C(CSc1nc2ccc(I)cc2c(=O)n1Cc1ccccc1)Nc1ccccc1	12.9 µM (inactive)	12.1 µM (inactive)	52.1 µM (inactive)	50.6 µM (inactive)	6.15 µM (inactive)	21.2 µM (inactive)	41.5	29.9 µM (inactive)	> 100 µM (inactive)	14.9 µM (inactive)	50.7 µM (inactive)	> 100 µM (inactive)	69.2 µM (inactive)	11.2 µM (inactive)	46.6 µM (inactive)	8.77 µM (inactive)	10.8 µM (inactive)	–	11.9 µM (inactive)
C[C@H]1CCCCC[C@@H]2CC(=O)CC2C(=O)CCC(=O)O1 (stereo partly specified)	–	–	> 100 µM (inactive)	> 100 µM (inactive)	> 100 µM (inactive)	> 100 µM (inactive)	> 100	> 100 µM (inactive)	> 100 µM (inactive)	> 100 µM (inactive)	–	> 100 µM (inactive)	> 100 µM (inactive)	> 100 µM (inactive)	6.68 µM (inactive)	> 100 µM (inactive)	> 100 µM (inactive)	> 100 µM (inactive)	16.7 µM (inactive)
COc1ccc(C2Oc3c(cccc3OC)C=C2[N+](=O)[O-])cc1 (stereo unspecified)	1.58 µM (inactive)	4.26 µM (inactive)	0.743 µM (active)	2.18 µM (inactive)	2.54 µM (inactive)	3.75 µM (inactive)	1.36	4.38 µM (inactive)	2 µM (inactive)	3.83 µM (inactive)	1.2 µM (inactive)	0.451 µM (active)	3.08 µM (inactive)	2 µM (inactive)	1.91 µM (inactive)	2.69 µM (inactive)	2 µM (inactive)	–	–
CC1(C)C2C=CC1(C)C1(CC2)OCCO1 (stereo unspecified)	–	> 100 µM (inactive)	> 100 µM (inactive)	> 100 µM (inactive)	> 100 µM (inactive)	> 100 µM (inactive)	> 100	> 100 µM (inactive)	> 100 µM (inactive)	> 100 µM (inactive)	> 100 µM (inactive)	> 100 µM (inactive)	> 100 µM (inactive)	> 100 µM (inactive)	> 100 µM (inactive)	> 100 µM (inactive)	> 100 µM (inactive)	> 100 µM (inactive)	> 100 µM (inactive)
c1ccc(NNC2=NCCN2)cc1	> 100 µM (inactive)	> 100 µM (inactive)	> 100 µM (inactive)	> 100 µM (inactive)	–	> 100 µM (inactive)	> 100	> 100 µM (inactive)	> 100 µM (inactive)	2.75 µM (inactive)	> 100 µM (inactive)	> 100 µM (inactive)	> 100 µM (inactive)	> 100 µM (inactive)	> 100 µM (inactive)	> 100 µM (inactive)	> 100 µM (inactive)	–	> 100 µM (inactive)
O=c1cc(NNCc2ccccc2)[nH]c(=O)[nH]1	> 100 µM (inactive)	–	> 100 µM (inactive)	> 100 µM (inactive)	80.5 µM (inactive)	0.678 µM (active)	> 100	> 100 µM (inactive)	> 100 µM (inactive)	> 100 µM (inactive)	> 100 µM (inactive)	> 100 µM (inactive)	> 100 µM (inactive)	> 100 µM (inactive)	–	> 100 µM (inactive)	> 100 µM (inactive)	> 100 µM (inactive)	> 100 µM (inactive)
O=C(/C=C/c1ccc(O)cc1)c1cc(-c2cc(CCC(=O)c3ccc(O)cc3O)ccc2O)c(O)cc1O	> 50 µM (inactive)	16.9 µM (inactive)	41.6 µM (inactive)	28.1 µM (inactive)	24.9 µM (inactive)	30.6 µM (inactive)	> 50	32.4 µM (inactive)	19.1 µM (inactive)	22.3 µM (inactive)	19.5 µM (inactive)	13.1 µM (inactive)	35.9 µM (inactive)	10.4 µM (inactive)	22.8 µM (inactive)	22.4 µM (inactive)	14.1 µM (inactive)	–	–
c1ccc(C2C3=C(CCCC3)Nc3nnnn32)cc1 (stereo unspecified)	> 100 µM (inactive)	> 100 µM (inactive)	> 100 µM (inactive)	13.8 µM (inactive)	–	25.4 µM (inactive)	> 100	> 100 µM (inactive)	98.4 µM (inactive)	57.4 µM (inactive)	> 100 µM (inactive)	–	> 100 µM (inactive)	> 100 µM (inactive)	56.2 µM (inactive)	12.5 µM (inactive)	37.8 µM (inactive)	–	–
CC[C@]12C=CCN3CC[C@@]4(c5cc(Br)c(OC)cc5N(C)[C@H]4[C@@](O)(C(=O)N[C@@H](Cc4ccc(O)cc4)C(=O)OC)[C@@H]1O)[C@@H]32	18.7 µM (inactive)	74.5 µM (inactive)	28 µM (inactive)	23.1 µM (inactive)	14.1 µM (inactive)	57.7 µM (inactive)	23.3	55.1 µM (inactive)	20 µM (inactive)	19.3 µM (inactive)	14.8 µM (inactive)	21.6 µM (inactive)	52.4 µM (inactive)	13.8 µM (inactive)	17.6 µM (inactive)	13.6 µM (inactive)	25.6 µM (inactive)	25.5 µM (inactive)	–
CCn1c2ccccc2c2ccc(C3C4C(=O)N(c5cccc6ccccc56)C(=O)C4ON3C(C(N)=O)c3ccccc3)cc21 (stereo unspecified)	4.66 µM (inactive)	> 25 µM (inactive)	19.1 µM (inactive)	8.38 µM (inactive)	> 25 µM (inactive)	17.9 µM (inactive)	13.3	14.8 µM (inactive)	9.1 µM (inactive)	> 25 µM (inactive)	13.2 µM (inactive)	–	24 µM (inactive)	9.12 µM (inactive)	9.04 µM (inactive)	> 25 µM (inactive)	13.7 µM (inactive)	–	2.76 µM (inactive)
COc1ccc(CCn2ccc(=O)c(O)c2C)cc1OC	2.48 µM (inactive)	21.2 µM (inactive)	12.2 µM (inactive)	20.5 µM (inactive)	30.7 µM (inactive)	29.9 µM (inactive)	2.7	12.4 µM (inactive)	19.2 µM (inactive)	5.77 µM (inactive)	25.5 µM (inactive)	–	27.9 µM (inactive)	28.4 µM (inactive)	–	2.37 µM (inactive)	–	–	–
O=c1ccn([C@@H]2C[C@H]2CO)c(=O)[nH]1	> 100 µM (inactive)	–	> 100 µM (inactive)	> 100 µM (inactive)	> 100 µM (inactive)	> 100 µM (inactive)	> 100	> 100 µM (inactive)	> 100 µM (inactive)	–	> 100 µM (inactive)	> 100 µM (inactive)	> 100 µM (inactive)	> 100 µM (inactive)	> 100 µM (inactive)	> 100 µM (inactive)	–	> 100 µM (inactive)	> 100 µM (inactive)
Nc1nccc(NCC2(CO)CC(OCc3ccccc3)C2)n1 (stereo unspecified)	> 100 µM (inactive)	–	–	> 100 µM (inactive)	> 100 µM (inactive)	7.98 µM (inactive)	> 100	79.4 µM (inactive)	> 100 µM (inactive)	> 100 µM (inactive)	> 100 µM (inactive)	> 100 µM (inactive)	> 100 µM (inactive)	> 100 µM (inactive)	> 100 µM (inactive)	> 10 µM (inactive)	87.5 µM (inactive)	> 100 µM (inactive)	> 100 µM (inactive)
C#CCCOC(=O)c1ccccc1OC(C)=O	> 100 µM (inactive)	> 100 µM (inactive)	> 100 µM (inactive)	> 100 µM (inactive)	–	> 100 µM (inactive)	> 100	> 100 µM (inactive)	> 100 µM (inactive)	> 100 µM (inactive)	> 100 µM (inactive)	> 100 µM (inactive)	> 100 µM (inactive)	> 100 µM (inactive)	> 100 µM (inactive)	> 100 µM (inactive)	> 100 µM (inactive)	–	> 100 µM (inactive)
c1cc(CSP234N5CCN2CCN3CCN4CC5)cc(CSP234N5CCN2CCN3CCN4CC5)c1	> 100 µM (inactive)	–	18.6 µM (inactive)	25.8 µM (inactive)	–	> 100 µM (inactive)	22.3	> 100 µM (inactive)	28.1 µM (inactive)	14.2 µM (inactive)	16.1 µM (inactive)	16.5 µM (inactive)	41.2 µM (inactive)	4.91 µM (inactive)	16.8 µM (inactive)	29.4 µM (inactive)	32.3 µM (inactive)	19.3 µM (inactive)	–
